Values quoted from earlier work as cited in patent publication US20240325474A1 (priority 2023, published 2024).
Converted amounts (≈) assume the structure as drawn.

Assays:
[1] = system: SARS-COV-2; details: Calu-3 cells
[2] = system: Calu-3 lung epithelia cell lines

C=C1CC[C@@H]2[C@](C)(CO)[C@H](O)CC[C@@]2(C)[C@@H]1C/C=C1/C(=O)OC[C@H]1O [andrographolide]
IC50 [1]: 34 nM | CC50 [2]: 58.03 µg/mL (≈ 166 µM)
